Data published in US20230346831A1, “METHODS FOR TREATING […] USING LOW DOSE CARBON MONOXIDE” (priority 2020, published 2023).
“And” between values parts separate entries of the source, which are not always exact repeats. Identical values can stand only once.

System: MCF7/TGL cells
Experiment: metabolomic assay (polar metabolite profiling, mass spectrometry)
Type: cell-based, human
Details: MCF7/TGL cells treated with CO, replicates CO 1-3
Protocol: Extraction and analysis were performed with the same parameters as the method disclosed in FIG. 7.
7 × 10^6 cells were seeded in 10-cm cell culture plates with DMEM containing 10% FBS, 0.2 mM L-glutamine and 1% penicillin/streptomycin. Additionally, MCF7/TGL/pQ was cultured in media containing 0.5 µgml^-1 puromycin and 25 mM HEPES. After 16 hours of incubation, metabolites were extracted from the cells using 80% methanol. The remaining steps were carried out by Weill Cornell Medicine Proteomics and Metabolomics Core Facility according to M. D. Goncalves et al., Proc Natl Acad Sci USA 115, E743-E752 (2018). All data analyses were done using MetaboAnalyst 4.0 (www.metaboanalyst.ca/).
To investigate whether 250 ppm CO mimics hypoxia, the HiF1α protein levels were examined in CO treated MCF7/TGL and MDA-MB-231/TGL cells. […] To determine whether 250 ppm CO affects metabolism, polar metabolites were profiled using two breast cancer cell lines, MCF7/TGL and MDA-MB-231/TGL (FIGS. 7-9).

Q: How did the “Peak Height 2-Ketobutyric acid” value (HMDB00005) turn out when [C-]#[O+] [CO, Carbon monoxide] was run?
A: 4,031,318 and 4,391,029 and 5,247,754

Q: What about the “Peak Height Deoxyuridine” value (HMDB00012) of the same compound?
A: 4,052 and 3,614 and 4,205

Q: What about the “Peak Height Carnosine” value (HMDB00033) of the same compound?
A: 2,611,797 and 2,457,728 and 2,635,558

Q: What about the “Peak Height Adenine” value (HMDB00034) of the same compound?
A: 319,396 and 405,129 and 608,706

Q: What about the “Peak Height Dihydrobiopterin” value (HMDB00038) of the same compound?
A: 37,904,750 and 45,778,470 and 54,551,140

Q: What about the “Peak Height Betaine” value (HMDB00043) of the same compound?
A: 211,641,600 and 205,281,000 and 256,902,700

Q: What about the “Peak Height Ascorbic acid” value (HMDB00044) of the same compound?
A: 1,179,857 and 2,029,092 and 5,154,497

Q: And the “Peak Height Adenosine monophosphate” value (HMDB00045)?
A: 595,508 and 473,948 and 497,428

Q: What about the “Peak Height Adenosine” value (HMDB00050) of the same compound?
A: 14,622 and 14,037 and 23,296

Q: What about the “Peak Height Argininosuccinic acid” value (HMDB00052) of the same compound?
A: 180,070 and 286,271 and 472,100

Q: What about the “Peak Height L-Carnitine” value (HMDB00062) of the same compound?
A: 275,929,100 and 289,061,800 and 291,180,600

Q: What about the “Peak Height Creatine” value (HMDB00064) of the same compound?
A: 394,311,900 and 394,104,400 and 478,205,800

Q: What about the “Peak Height cis-Aconitic acid” value (HMDB00072) of the same compound?
A: 11,654,680 and 13,826,410 and 17,813,720

Q: And the “Peak Height Cytidine triphosphate” value (HMDB00082)?
A: 248,084 and 155,802 and 221,285

Q: What about the “Peak Height Glycerophosphocholine” value (HMDB00086) of the same compound?
A: 299,915,900 and 348,438,900 and 459,259,100

Q: What about the “Peak Height Cytidine” value (HMDB00089) of the same compound?
A: 104,165 and 69,105 and 173,745

Q: What about the “Peak Height Dimethylglycine” value (HMDB00092) of the same compound?
A: 6,279,555 and 7,567,884 and 7,137,536

Q: What about the “Peak Height Citric acid” value (HMDB00094) of the same compound?
A: 83,266,830 and 83,863,100 and 100,258,700

Q: And the “Peak Height Cytidine monophosphate” value (HMDB00095)?
A: 93,671 and 115,860 and 141,423

Q: What about the “Peak Height Choline” value (HMDB00097) of the same compound?
A: 183,705,300 and 191,547,400 and 211,305,800

Q: And the “Peak Height L-Cystathionine” value (HMDB00099)?
A: 13,082,840 and 16,491,010 and 22,978,520

Q: What about the “Peak Height D-Glucose” value (HMDB00122) of the same compound?
A: 24,253,400 and 27,009,740 and 49,287,950

Q: And the “Peak Height Glycine” value (HMDB00123)?
A: 97,069,490 and 60,912,580 and 81,769,040

Q: What about the “Peak Height Fructose 6-phosphate” value (HMDB00124) of the same compound?
A: 689,466 and 869,013 and 1,084,547

Q: What about the “Peak Height Glutathione” value (HMDB00125) of the same compound?
A: 166,253,500 and 185,818,800 and 224,175,500

Q: And the “Peak Height Glycerol3-phosphate” value (HMDB00126)?
A: 242,288 and 358,077 and 520,107

Q: And the “Peak Height D-Glucuronic acid” value (HMDB00127)?
A: 193,639 and 229,627 and 245,391

Q: What about the “Peak Height Fumaric acid” value (HMDB00134) of the same compound?
A: 5,149,166 and 6,086,688 and 8,204,115

Q: And the “Peak Height L-Glutamic acid” value (HMDB00148)?
A: 344,240,500 and 392,276,300 and 563,702,200

Q: And the “Peak Height Hypoxanthine” value (HMDB00157)?
A: 207,108 and 78,064 and 86,812

Q: What about the “Peak Height L-Tyrosine” value (HMDB00158) of the same compound?
A: 58,933,980 and 62,662,290 and 101,701,400

Q: What about the “Peak Height L-Phenylalanine” value (HMDB00159) of the same compound?
A: 287,943,500 and 304,931,600 and 425,257,300

Q: And the “Peak Height L-Alanine” value (HMDB00161)?
A: 24,164,680 and 26,271,210 and 37,606,940

Q: What about the “Peak Height L-Proline” value (HMDB00162) of the same compound?
A: 456,504,200 and 470,321,900 and 561,265,500

Q: What about the “Peak Height L-Threonine” value (HMDB00167) of the same compound?
A: 103,403,600 and 114,367,100 and 144,573,600

Q: And the “Peak Height L-Asparagine” value (HMDB00168)?
A: 42,196,450 and 47,225,620 and 55,751,170

Q: And the “Peak Height L-Isoleucine” value (HMDB00172)?
A: 339,480,000 and 333,493,200 and 481,854,600

Q: And the “Peak Height Inosinic acid” value (HMDB00175)?
A: 22,764 and 28,902 and 46,283

Q: What about the “Peak Height L-Histidine” value (HMDB00177) of the same compound?
A: 295,632,700 and 322,360,800 and 456,145,200

Q: What about the “Peak Height L-Lysine” value (HMDB00182) of the same compound?
A: 41,138,540 and 40,717,620 and 74,426,720

Q: What about the “Peak Height Alpha-Lactose” value (HMDB00186) of the same compound?
A: 261,525 and 290,474 and 303,327

Q: What about the “Peak Height L-Serine” value (HMDB00187) of the same compound?
A: 22,682,210 and 24,881,370 and 27,375,240

Q: And the “Peak Height L-Lactic acid” value (HMDB00190)?
A: 135,248,600 and 168,348,200 and 288,458,500

Q: What about the “Peak Height L-Aspartic acid” value (HMDB00191) of the same compound?
A: 12,945,220 and 18,829,880 and 30,552,150

Q: What about the “Peak Height L-Acetylcarnitine” value (HMDB00201) of the same compound?
A: 191,662,400 and 208,376,400 and 217,883,700

Q: What about the “Peak Height N6-Acetyl-L-lysine” value (HMDB00206) of the same compound?
A: 126,221 and 143,548 and 210,190

Q: What about the “Peak Height Oxoglutaric acid” value (HMDB00208) of the same compound?
A: 24,674,800 and 27,743,170 and 32,411,680

Q: What about the “Peak Height Pantothenic acid” value (HMDB00210) of the same compound?
A: 49,604,040 and 57,015,540 and 93,443,310

Q: What about the “Peak Height Myoinositol” value (HMDB00211) of the same compound?
A: 1,493,285 and 1,572,114 and 2,893,583

Q: And the “Peak Height Ornithine” value (HMDB00214)?
A: 3,323,027 and 3,678,113 and 4,669,739

Q: What about the “Peak Height NADP” value (HMDB00217) of the same compound?
A: 35,994 and 44,669 and 56,121

Q: And the “Peak Height Orotic acid” value (HMDB00226)?
A: 107,743 and 166,715

Q: What about the “Peak Height Thiamine” value (HMDB00235) of the same compound?
A: 13,320,550 and 15,145,370 and 21,979,980

Q: What about the “Peak Height Pyruvic acid” value (HMDB00243) of the same compound?
A: 6,830,386 and 7,616,124 and 9,628,515

Q: What about the “Peak Height Riboflavin” value (HMDB00244) of the same compound?
A: 8,515 and 36,944

Q: And the “Peak Height Taurine” value (HMDB00251)?
A: 213,761,300 and 213,696,600 and 188,154,600

Q: What about the “Peak Height Succinic acid” value (HMDB00254) of the same compound?
A: 3,099,054 and 3,989,967 and 6,160,312

Q: What about the “Peak Height Thymine” value (HMDB00262) of the same compound?
A: 7,867,191 and 9,149,847 and 12,133,270

Q: And the “Peak Height Phosphoenolpyruvic acid” value (HMDB00263)?
A: 3,181,575 and 5,081,852 and 6,959,276

Q: And the “Peak Height Pyroglutamic acid” value (HMDB00267)?
A: 70,921,790 and 82,143,660 and 125,886,000

Q: What about the “Peak Height Thymidine” value (HMDB00273) of the same compound?
A: 18,849 and 10,836 and 11,271

Q: What about the “Peak Height Uridine triphosphate” value (HMDB00285) of the same compound?
A: 972,321 and 740,370 and 1,159,635

Q: What about the “Peak Height Uridine diphosphate glucose” value (HMDB00286) of the same compound?
A: 3,510,195 and 3,063,631 and 4,862,560

Q: And the “Peak Height Uridine 5′-monophosphate” value (HMDB00288)?
A: 35,559 and 34,351 and 45,597

Q: And the “Peak Height Uric acid” value (HMDB00289)?
A: 2,364,329 and 2,512,157 and 4,422,182

Q: What about the “Peak Height Uridine diphosphate-N-acetylglucosamine” value (HMDB00290) of the same compound?
A: 38,715,250 and 42,157,110 and 45,820,290

Q: What about the “Peak Height Xanthine” value (HMDB00292) of the same compound?
A: 3,106,304 and 2,715,740 and 5,495,149

Q: And the “Peak Height Uridine 5′-diphosphate” value (HMDB00295)?
A: 297,075 and 234,752 and 314,015

Q: And the “Peak Height Uridine” value (HMDB00296)?
A: 51,402 and 29,724 and 61,581

Q: What about the “Peak Height Uracil” value (HMDB00300) of the same compound?
A: 621,176 and 684,209 and 956,261

Q: And the “Peak Height Urocanicacid” value (HMDB00301)?
A: 330,874 and 577,556 and 198,149

Q: And the “Peak Height 3-Hydroxymethylglutaric acid” value (HMDB00355)?
A: 5,766,106 and 4,010,368 and 3,996,699

Q: What about the “Peak Height Allantoin” value (HMDB00462) of the same compound?
A: 1,483,552 and 1,936,773 and 3,316,178

Q: What about the “Peak Height Caprylic acid” value (HMDB00482) of the same compound?
A: 3,978,947 and 2,718,335 and 2,586,172

Q: And the “Peak Height Aminoadipic acid” value (HMDB00510)?
A: 5,713,433 and 5,346,300 and 7,560,774

Q: What about the “Peak Height L-Arginine” value (HMDB00517) of the same compound?
A: 64,328,130 and 65,745,300 and 95,595,630

Q: And the “Peak Height Adenosine triphosphate” value (HMDB00538)?
A: 1,853,382 and 1,283,500 and 2,002,755

Q: And the “Peak Height Creatinine” value (HMDB00562)?
A: 20,992,210 and 21,746,470 and 37,545,350

Q: And the “Peak Height Galactonic acid” value (HMDB00565)?
A: 8,090,935 and 11,406,370 and 14,258,950

Q: What about the “Peak Height D-Arabitol” value (HMDB00568) of the same compound?
A: 250,315 and 263,626 and 418,856

Q: What about the “Peak Height D-2-Hydroxyglutaric acid” value (HMDB00606) of the same compound?
A: 460,608 and 570,887 and 905,587

Q: And the “Peak Height Gluconic acid” value (HMDB00625)?
A: 6,277,480 and 8,930,573 and 14,396,540
